Inhibition data for four molecules are collected here from ChEMBL document CHEMBL1151299, “Flavonoids with anti-cataract activity from Brickellia arguta” (J Nat Prod, 1984).

Molecules are shown by their SMILES.

Test [1] has as its target Aldo-keto reductase family 1 member B1 (Rattus norvegicus) (UniProt P07943). The test can be described thus: Inhibition of rat lens aldose reductase at 1 uM.
Test [2] shares this target. As to the kind of experiment: Inhibition of rat lens aldose reductase at 0.1 uM.
For test [3] the target is unchanged. The test can be described thus: Inhibition of rat lens aldose reductase at 10 uM.

`COc1c(O)cc2oc(-c3ccc(O)cc3)c(O[C@@H]3O[C@H](CO[C@@H]4O[C@@H](C)[C@H](O)[C@@H](O)[C@H]4O)[C@H](O)[C@H](O)[C@H]3O)c(=O)c2c1O`: the inhibition in test [1] is 32%; in test [2] it was 63%; in test [3] it was 9%.
In the case of `O=C(O)CN1C(=O)c2cccc3cccc(c23)C1=O`, the inhibition worked out at 40% in test [1] and 0% in test [3].
`COc1c(O)cc2oc(-c3ccc(O)c(O)c3)c(O[C@@H]3O[C@H](CO)[C@H](O)[C@H](O)[C@H]3O)c(=O)c2c1O`: the figures for the inhibition in test [1], in test [2] and in test [3] were 38%, 84% and 7%, respectively.
For `COc1c(O)cc2oc(-c3ccc(O)c(O)c3)c(O[C@@H]3O[C@H](CO[C@@H]4O[C@@H](C)[C@H](O)[C@@H](O)[C@H]4O)[C@H](O)[C@H](O)[C@H]3O)c(=O)c2c1O`, the inhibition in test [1] worked out at 33%; in test [2], 86%; in test [3] it was 11%.
